The source made the active and inactive calls. The rule behind the calls is not given here.
System: CCRIS mutagenicity, Ames/micronucleus/aberration tests
Assay: CCRIS mutagenicity studies
[1] = Test System: AMES SALMONELLA TYPHIMURIUM, Strain/Indicator: TA98, Metabolic Activation: NONE, Method: STANDARD PLATE
[2] = Test System: AMES SALMONELLA TYPHIMURIUM, Strain/Indicator: TA98, Metabolic Activation: RAT, LIVER, S-9, AROCLOR 1254, Method: STANDARD PLATE
[3] = Test System: AMES SALMONELLA TYPHIMURIUM, Strain/Indicator: TA100, Metabolic Activation: NONE, Method: STANDARD PLATE
[4] = Test System: AMES SALMONELLA TYPHIMURIUM, Strain/Indicator: TA100, Metabolic Activation: RAT, LIVER, S-9, AROCLOR 1254, Method: STANDARD PLATE
[5] = Test System: AMES SALMONELLA TYPHIMURIUM, Strain/Indicator: TA1538, Metabolic Activation: RAT, LIVER, S-9, AROCLOR 1254, Method: STANDARD PLATE

Compound: CN(C)CCN(Cc1cccs1)c1ccccn1
- mutagenic call (Test System: AMES SALMONELLA TYPHIMURIUM, Strain/Indicator: TA97, Metabolic Activation: RAT, LIVER, S-9, AROCLOR 1254, Method: STANDARD PLATE): inactive; negative
- mutagenic call (Test System: AMES SALMONELLA TYPHIMURIUM, Strain/Indicator: TA98, Metabolic Activation: HAMSTER LIVER S-9, AROCLOR 1254 (10%), Method: PREINCUBATION): inactive; negative
- mutagenic call (Test System: AMES SALMONELLA TYPHIMURIUM, Strain/Indicator: TA98, Metabolic Activation: NONE, Method: PREINCUBATION): inactive; negative
- mutagenic call [1]: inactive; negative
- mutagenic call (Test System: AMES SALMONELLA TYPHIMURIUM, Strain/Indicator: TA98, Metabolic Activation: RAT LIVER S-9, AROCLOR 1254 (10%), Method: PREINCUBATION): inactive; negative
- mutagenic call (Test System: AMES SALMONELLA TYPHIMURIUM, Strain/Indicator: TA98, Metabolic Activation: RAT, LIVER, S-9, AROCLOR 1254, Method: PREINCUBATION): inactive; negative
- mutagenic call [2]: inactive; negative
- mutagenic call (Test System: AMES SALMONELLA TYPHIMURIUM, Strain/Indicator: TA98, Metabolic Activation: RAT, LIVER, S-9, Method: STANDARD PLATE): inactive; negative
- mutagenic call (Test System: AMES SALMONELLA TYPHIMURIUM, Strain/Indicator: TA98, Method: STANDARD PLATE): inactive; negative
- mutagenic call (Test System: AMES SALMONELLA TYPHIMURIUM, Strain/Indicator: TA100, Metabolic Activation: HAMSTER LIVER S-9, AROCLOR 1254 (10%), Method: PREINCUBATION): inactive; negative
- mutagenic call (Test System: AMES SALMONELLA TYPHIMURIUM, Strain/Indicator: TA100, Metabolic Activation: NONE, Method: PREINCUBATION): inactive; negative
- mutagenic call [3]: inactive; negative
- mutagenic call (Test System: AMES SALMONELLA TYPHIMURIUM, Strain/Indicator: TA100, Metabolic Activation: RAT LIVER S-9, AROCLOR 1254 (10%), Method: PREINCUBATION): inactive; negative
- mutagenic call [4]: inactive; negative
- mutagenic call (Test System: AMES SALMONELLA TYPHIMURIUM, Strain/Indicator: TA100, Metabolic Activation: RAT, LIVER, S-9, Method: STANDARD PLATE): inactive; negative
- mutagenic call (Test System: AMES SALMONELLA TYPHIMURIUM, Strain/Indicator: TA100, Method: STANDARD PLATE): inactive; negative
- mutagenic call (Test System: AMES SALMONELLA TYPHIMURIUM, Strain/Indicator: TA104, Metabolic Activation: NONE, Method: STANDARD PLATE): inactive; negative
- mutagenic call (Test System: AMES SALMONELLA TYPHIMURIUM, Strain/Indicator: TA104, Metabolic Activation: RAT, LIVER, S-9, AROCLOR 1254, Method: STANDARD PLATE): inactive; negative
- mutagenic call (Test System: AMES SALMONELLA TYPHIMURIUM, Strain/Indicator: TA104, Metabolic Activation: RAT, LIVER, S-9, Method: STANDARD PLATE): inactive; negative
- mutagenic call (Test System: AMES SALMONELLA TYPHIMURIUM, Strain/Indicator: TA104, Method: STANDARD PLATE): inactive; negative
- mutagenic call (Test System: AMES SALMONELLA TYPHIMURIUM, Strain/Indicator: TA1535, Metabolic Activation: HAMSTER LIVER S-9, AROCLOR 1254 (10%), Method: PREINCUBATION): inactive; negative
- mutagenic call (Test System: AMES SALMONELLA TYPHIMURIUM, Strain/Indicator: TA1535, Metabolic Activation: NONE, Method: PREINCUBATION): inactive; negative
- mutagenic call (Test System: AMES SALMONELLA TYPHIMURIUM, Strain/Indicator: TA1535, Metabolic Activation: RAT LIVER S-9, AROCLOR 1254 (10%), Method: PREINCUBATION): inactive; negative
- mutagenic call (Test System: AMES SALMONELLA TYPHIMURIUM, Strain/Indicator: TA1535, Metabolic Activation: RAT, LIVER, S-9, AROCLOR 1254, Method: STANDARD PLATE): inactive; negative
- mutagenic call (Test System: AMES SALMONELLA TYPHIMURIUM, Strain/Indicator: TA1535, Metabolic Activation: RAT, LIVER, S-9, Method: STANDARD PLATE): inactive; negative
- mutagenic call (Test System: AMES SALMONELLA TYPHIMURIUM, Strain/Indicator: TA1535, Method: STANDARD PLATE): inactive; negative
- mutagenic call (Test System: AMES SALMONELLA TYPHIMURIUM, Strain/Indicator: TA1537, Metabolic Activation: HAMSTER LIVER S-9, AROCLOR 1254 (10%), Method: PREINCUBATION): inactive; negative
- mutagenic call (Test System: AMES SALMONELLA TYPHIMURIUM, Strain/Indicator: TA1537, Metabolic Activation: NONE, Method: PREINCUBATION): inactive; negative
- mutagenic call (Test System: AMES SALMONELLA TYPHIMURIUM, Strain/Indicator: TA1537, Metabolic Activation: NONE, Method: STANDARD PLATE): inactive; negative
- mutagenic call (Test System: AMES SALMONELLA TYPHIMURIUM, Strain/Indicator: TA1537, Metabolic Activation: RAT LIVER S-9, AROCLOR 1254 (10%), Method: PREINCUBATION): inactive; negative
- mutagenic call (Test System: AMES SALMONELLA TYPHIMURIUM, Strain/Indicator: TA1537, Metabolic Activation: RAT, LIVER, S-9, AROCLOR 1254, Method: STANDARD PLATE): inactive; negative
- mutagenic call (Test System: AMES SALMONELLA TYPHIMURIUM, Strain/Indicator: TA1537, Metabolic Activation: RAT, LIVER, S-9, Method: STANDARD PLATE): inactive; negative
- mutagenic call (Test System: AMES SALMONELLA TYPHIMURIUM, Strain/Indicator: TA1537, Method: STANDARD PLATE): inactive; negative
- mutagenic call [5]: inactive; negative
- mutagenic call (Test System: AMES SALMONELLA TYPHIMURIUM, Strain/Indicator: TA2638, Metabolic Activation: NONE, Method: STANDARD PLATE): inactive; negative
- mutagenic call (Test System: AMES SALMONELLA TYPHIMURIUM, Strain/Indicator: TA2638, Metabolic Activation: RAT, LIVER, S-9, AROCLOR 1254, Method: STANDARD PLATE): inactive; negative
- mutagenic call (Test System: AMES SALMONELLA TYPHIMURIUM, Strain/Indicator: TA2638, Metabolic Activation: RAT, LIVER, S-9, Method: STANDARD PLATE): inactive; negative
- mutagenic call (Test System: AMES SALMONELLA TYPHIMURIUM, Strain/Indicator: TA2638, Method: STANDARD PLATE): inactive; negative
- mutagenic call (Test System: CHINESE HAMSTER OVARY, Strain/Indicator: CHO-K1-BH4 (HGPRT), Metabolic Activation: NONE, Method: SUSPENSION/PLATE): inactive; negative
- mutagenic call (Test System: CHINESE HAMSTER OVARY, Strain/Indicator: CHO-K1-BH4 (HGPRT), Metabolic Activation: RAT, LIVER, S-9, AROCLOR, Method: SUSPENSION/PLATE): inactive; negative
- mutagenic call (Test System: E. COLI, Strain/Indicator: WP2 UVRA, Metabolic Activation: NONE, Method: STANDARD PLATE): inactive; negative
- mutagenic call (Test System: E. COLI, Strain/Indicator: WP2 UVRA, Metabolic Activation: RAT, LIVER, S-9, AROCLOR 1254, Method: STANDARD PLATE): inactive; negative
- mutagenic call (Test System: E. COLI, Strain/Indicator: WP2 UVRA, Metabolic Activation: RAT, LIVER, S-9, Method: STANDARD PLATE): inactive; negative
- mutagenic call (Test System: E. COLI, Strain/Indicator: WP2 UVRA, Method: STANDARD PLATE): inactive; negative
- mutagenic call (Test System: MOUSE LYMPHOMA, Strain/Indicator: L5178Y (TK+/+)/TRIFLUOROTHYMIDINE, Metabolic Activation: RAT LIVER S-9, AROCLOR 1254, Method: SUSPENSION/PLATE): inactive; negative
- mutagenic call (Test System: MOUSE LYMPHOMA, Strain/Indicator: L5178Y (TK+/TK-), Metabolic Activation: NONE, Method: SUSPENSION/PLATE): inactive; negative
- mutagenic call (Test System: MOUSE LYMPHOMA, Strain/Indicator: L5178Y (TK+/TK-), Metabolic Activation: RAT, LIVER, S-9, AROCLOR 1242 AND 1254 (2:1), Method: SUSPENSION/PLATE): active; positive
- mutagenic call (Test System: MOUSE LYMPHOMA, Strain/Indicator: L5178Y (TK+/TK-), Metabolic Activation: RAT, LIVER, S-9, AROCLOR 1242 AND 1254 (2:1 MIXTURE), Method: SUSPENSION/PLATE): active; positive
- mutagenic call (Test System: MOUSE LYMPHOMA, Strain/Indicator: L5178Y (TK+/TK-), Metabolic Activation: RAT, LIVER, S-9, AROCLOR 1254, Method: SUSPENSION/PLATE): inactive; negative
- mutagenic call (Test System: UDS RAT HEPATOCYTES, Strain/Indicator: THY INCORP, Metabolic Activation: NONE, Method: AUTORADIOGRAPHY (SERUM-FREE MEDIA)): active; positive

Compound: O=c1[nH]sc2cc([N+](=O)[O-])ccc12
- mutagenic call [3]: active; positive

Compound: CC(C)c1cc(N)cc([N+](=O)[O-])c1N
- mutagenic call [1]: inactive; negative
- mutagenic call [2]: inactive; negative
- mutagenic call [3]: inactive; negative
- mutagenic call [4]: inactive; negative
- mutagenic call (Test System: AMES SALMONELLA TYPHIMURIUM, Strain/Indicator: TA1538, Metabolic Activation: NONE, Method: STANDARD PLATE): inactive; negative
- mutagenic call [5]: inactive; negative
